In paper PMC10382259, “Efficacy and Safety of Elamipretide in Individuals With Primary Mitochondrial Myopathy” (Neurology, 2023):
“Also recorded” adds a separate entry of the source.

What was measured:
[1] = tested on: participants with primary mitochondrial myopathy (PMM); assay: Primary Mitochondrial Myopathy Symptom Assessment (PMMSA) total fatigue score, MMPOWER-3; format: in vivo, human
Description: (§1) MMPOWER-3 was a 24-week , randomized, double-blind, parallel-group, placebo-controlled clinical trial for adults with PMM conducted at 27 clinical research centers in 7 countries (Canada, Denmark, England, Germany, Hungary, Italy, and the United States).
(§2) After screening (7–28 days), eligible participants were randomized in a 1:1 ratio to receive either 24-weeks of once-daily SC dosing of 40 mg of elamipretide or placebo. Study drug or placebo was self-administered subcutaneously by trained participants or their caregivers, at rotating sites around 4 quadrants of the abdomen or the thighs. Treatment began at the baseline visit with assessments at weeks 4, 12, and 24.
(§3) Coprimary endpoints evaluated the effect of elamipretide for 24 weeks including the distance walked (in meters) on the 6MWT and the total fatigue score on the Primary Mitochondrial Myopathy Symptom Assessment (PMMSA), previously described in detail.[31] The full PMMSA assesses the severity of 10 of the most common symptoms of PMM using the following 4-point scale (not at all[1] to severe; described later). PMMSA total fatigue score (TFS) focuses on myopathic symptoms most commonly associated with PMM (severity of tiredness and muscle weakness at rest and during activities, as described by participants).
The PMMSA was performed during screening, baseline, and daily throughout the 24-week study period. Other efficacy endpoints were performed at screening, baseline, and at weeks 4, 12, and 24 of randomized treatment.
(§4) Efficacy was assessed in the intention-to-treat (ITT) population, defined as all participants who received at least 1 dose of investigational medication, and the per-protocol (PP) population, which included all ITT participants without defined protocol violations/deviations identified per blinded data review before database lock. These protocol violations/deviations included not meeting inclusion/exclusion criteria or having a selected major protocol deviation deemed to potentially affect efficacy findings; not completing the study; not receiving investigational treatment within 2 days before the week 24 visit; having <80% compliance to investigational product; and not completing the study. Safety was assessed in the safety population, defined as all participants who received at least 1 dose of investigational medication.
(§5) Primary and secondary efficacy outcomes were assessed as the change from baseline to each on-treatment time point with the primary time point being end of treatment (week 24). Analyses of continuous endpoints were conducted using a mixed-model repeated measures approach, with fixed effects for treatment, visit, the treatment-by-visit interaction, and participant as a random effect. The baseline value and a baseline-by-visit interaction for the endpoint were included as covariates. A family-wise alpha level of 0.05 was maintained for the primary endpoints, using Hochberg procedure at the primary time point of 24 weeks. […] If not, the endpoint with the smaller p value of the 2 was considered statistically significant if the p value was ≤0.025 (2-sided ).
(§6) Given the extensive genetic heterogeneity of the study population, an exploratory analysis of genetic subgroups by genomic alteration (mtDNA and nDNA) was performed using the same methods as described for the primary efficacy endpoints earlier (ITT population using similar mixed-model repeated measure [MMRM] models).

[2] = tested on: participants with primary mitochondrial myopathy (PMM); assay: 6-minute walk test (6MWT), MMPOWER-3 phase 3 trial; format: in vivo, human
Description: as §1, §2, §3, §4, §5, §6
Because of a potential data entry error, which was later identified in post hoc data analysis, 3 participants were misclassified in the clinical study report as having a pathogenic mtDNA variant. […] Accordingly, these participants were moved from the mtDNA group into the nDNA cohort for the included genetic alteration analyses. 6MWT for 1 participant at week 24 was deemed unusable because the participant inadvertently received walking assistance and was therefore not included in the 6MWT analyses. Study protocol and statistical analysis plan were published on ClinicalTrials.gov updated on January 24th 2022 (NCT03323749).[32]

[3] = tested on: participants with primary mitochondrial myopathy (PMM); assay: Safety and tolerability (adverse events), MMPOWER-3; format: in vivo, human
Description: Safety and tolerability of elamipretide at a dose of 40 mg/d SC were assessed through recording of adverse events (AEs), ascertained through self-report, vital signs, physical examination, ECGs, and clinical laboratory evaluations. Adverse events were assessed for severity and relationship to study medication throughout the 24-week study. Safety measures were assessed during screening, baseline and weeks 4, 12, and 24.
as §4

[4] = tested on: participants with primary mitochondrial myopathy (PMM); assay: MMPOWER-3 overall outcome on primary and secondary efficacy endpoints; format: in vivo, human; conditions: 40 mg/d SC, 24 weeks, vs placebo
Excerpt: as §3, with “participants). […]” for “participants).”
Other secondary endpoints included the patient global impression (PGI) and clinician global impression (CGI) of PMM symptoms. PGI and CGI assess patient and clinician overall assessment of the severity of patients' symptoms related to PMM on a 5-point scaled question scored 0 to 4 (0 = none, 1 = mild, 2 = moderate, 3 = severe, and 4 = very Severe) and changes to their symptoms on a 7-point scale scored −3 to 3 (−3 = very much worse, −2 = moderately worse, −1 = a little worse, 0 = no change, 1 = a little better, 2 = moderately better, and 3 = very much better).
Primary and secondary efficacy outcomes were assessed as the change from baseline to each on-treatment time point with the primary time point being end of treatment (week 24). […]

[5] = Population pharmacokinetic and exposure-response analysis (NONMEM), MMPOWER-3; format: in vivo, human
Description: The PK population included 106 participants randomized and treated with elamipretide, with at least 1 PK sample taken during their participation. PK modeling for elamipretide and its metabolites, M1 and M2, were performed using NONMEM computer software. Covariates, such as age, genotype, weight, height, lean body mass, body mass index, liver function tests, serum creatinine, and renal function (as described by estimated glomerular filtration rate [eGFR]) were analyzed. The exposure-response analysis examined response based on the 6MWT as a function of steady-state exposure to elamipretide and its metabolites.

[6] = cited from earlier work
Excerpt: Elamipretide is an investigational mitochondrial-targeting agent in development for treating patients with a variety of mitochondrial diseases.[10][-][13] Elamipretide is a water-soluble, aromatic, cationic, mitochondria-targeting tetrapeptide that readily penetrates and transiently localizes to the inner mitochondrial membrane where it associates with cardiolipin to improve membrane stability and restore supercomplex formation, thereby enhancing adenosine triphosphate synthesis in several organs including the heart, kidney, neurons, and skeletal muscle, and reduce reactive oxygen species (ROS ...

[7] = 40 mg/d SC, 24 weeks, listed as Elamipretide
[8] = AEs reported by ≥ 5% of participants in either group, n = 109, 40 mg/d SC, 24 weeks
[9] = safety population n = 109, 40 mg/d SC, 24 weeks

## elamipretide
[1]; ITT population, 40 mg/d SC, 24 weeks, 95% CI −0.69 to 0.54, p = 0.81
  Difference between elamipretide and placebo in LS mean change from baseline to week 24 on PMMSA total fatigue score: −0.07
[1]; ITT population, 40 mg/d SC, 24 weeks, MMRM, SEM
  LS mean (SE) of change from baseline to week 24 on the PMMSA total fatigue score: −1.13 (±0.22)
[1]; PP population, 40 mg/d SC, 24 weeks, 95% CI −0.54 to 0.72, p = 0.78
  Difference between elamipretide and placebo in change from baseline to week 24 on PMMSA total fatigue score, per-protocol analysis: 0.09
[1]; participants with mtDNA alteration, 40 mg/d SC, 24 weeks, SEM
  LS mean (SE) of change from baseline at week 24 on PMMSA TFS, mtDNA alteration subgroup: −1.3 (±0.2424)
[1]; participants with mtDNA alteration, 95% CI −0.9 to 0.5, p = 0.55
  Between-group difference in change from baseline at week 24 on PMMSA TFS, mtDNA alteration subgroup: −0.21
[1]; participants with nDNA alteration (post hoc analysis), 40 mg/d SC, 24 weeks, SEM
  LS mean (SE) of change from baseline at week 24 on PMMSA TFS, nDNA alteration subgroup: −0.45 (±0.25)
[1]; participants with nDNA alteration (post hoc), p = 0.93
  Between-group difference in change from baseline at week 24 on PMMSA TFS, nDNA alteration subgroup: 0.03
[2]; ITT population, 40 mg/d SC, 24 weeks, 95% CI −18.7 to 12.3, p = 0.69
  Difference between elamipretide and placebo in LS mean change from baseline in 6MWT distance at week 24: −3.2 meters
[2]; ITT population, elamipretide 40 mg/d SC once daily, 24 weeks, MMRM, SEM
  Least squares mean (SE) of change from baseline in distance walked on 6MWT at week 24: 14.1 (±5.7) meters
[2]; PP population, 40 mg/d SC, 24 weeks, 95% CI −16.9 to 12.5, p = 0.77
  Difference between elamipretide and placebo in change from baseline in 6MWT distance at week 24, per-protocol analysis: −2.2 meters
[2]; participants with mtDNA alteration (ITT), elamipretide n = 74, 40 mg/d SC, 24 weeks, SEM
  LS mean (SE) of change from baseline in 6MWT distance at week 24, mtDNA alteration subgroup: 14.0 (±6.1) meters
[2]; participants with mtDNA alteration, favoring placebo, 95% CI −28.1 to 6.1, p = 0.21
  Between-group difference in change from baseline in 6MWT distance at week 24, mtDNA alteration subgroup: −11.0 meters
[2]; participants with nDNA alteration (post hoc analysis), elamipretide n = 29, 40 mg/d SC, 24 weeks, SEM
  LS mean (SE) change from baseline in 6MWT distance at week 24, nDNA alteration subgroup: 25.5 (±8.0) meters
[2]; participants with nDNA alteration (post hoc), favoring elamipretide, 95% CI 3.1–47.3, p = 0.03
  Between-group difference in change from baseline in 6MWT distance at week 24, nDNA alteration subgroup: 25.2 meters
[3]; 40 mg/d SC, 24 weeks
  AE with an outcome of death or hospitalization: No participants
  Severity (intensity) of most adverse events: mild or moderate
  Tolerability of subcutaneous elamipretide: generally well tolerated
[3]; [7]
  Severity (intensity) of most adverse events: mild to moderate
  Tolerability of subcutaneous elamipretide: well-tolerated
[3]; [8]
  Diarrhea: 3 (2.8) n (%)
  Dizziness: 6 (5.5) n (%)
  Eosinophil count increased: 7 (6.4) n (%)
  Fall: 6 (5.5) n (%)
  Headache: 8 (7.3) n (%)
  Injection site bruising: 9 (8.3) n (%)
  Injection site erythema: 94 (86.2) n (%)
  Injection site hematoma: 0 n (%)
  Injection site hemorrhage: 7 (6.4) n (%)
  Injection site induration: 31 (28.4) n (%)
  Injection site mass: 9 (8.3) n (%)
  Injection site nodule: 11 (10.1) n (%)
  Injection site pain: 43 (39.4) n (%)
  Injection site pruritus: 82 (75.2) n (%)
  Injection site swelling: 42 (38.5) n (%)
  Injection site urticaria: 14 (12.8) n (%)
  Nasopharyngitis: 8 (7.3) n (%)
  Nausea: 5 (4.6) n (%)
  Upper respiratory tract infection: 7 (6.4) n (%)
[3]; elamipretide group, 40 mg/d SC, 24 weeks
  AEs reported as treatment-related AEs: 97.2%
[3]; n = 5/109, not deemed to be treatment related
  Percentage of participants with serious adverse events (SAEs): 4.6%
[3]; n = 8/109
  Incidence of AEs leading to discontinuation: 7.3%
[3]; n = 107/109, 40 mg/d SC, 24 weeks
  Percentage of participants reporting AEs during the treatment period: 98.2%
[3]; [9]
  Any AE: 107 (98.2) n (%)
  Any AE leading to treatment discontinuation: 8 (7.3) n (%)
  Any AE leading to treatment interruption: 13 (11.9) n (%)
  Any SAE: 5 (4.6) n (%)
  Any treatment-related AE: 106 (97.2) n (%)
  Any treatment-related SAE: 0 n (%)
  Death: 0 n (%)
[4]
  Overall outcome on efficacy endpoints (6MWT, PMMSA TFS, secondary endpoints) versus placebo: did not improve outcomes in the 6MWT and PMMSA TFS; also recorded: did not meet either primary or secondary endpoints; also recorded: did not demonstrate statistically significant changes on the primary endpoints
[5]; PK population 106 participants, NONMEM, systemic parameters scaled allometrically
  Covariate influence on systemic or absorption PK parameters (population PK model): No covariates influenced the systemic or absorption parameters
[5]; participants with an nDNA alteration, p = 0.0262 and p = 0.0345, respectively
  Exposure-response: 6MWT change and fractional change at week 24 vs day 1 as a function of elamipretide steady state area under the curve: increase; also recorded: statistically significant correlation
[6]
  Solubility in water (description): water-soluble
